From US20230151065A1, “MULTI-DISULFIDE-BOND LONG-CHAIN PEPTIDE WITH NEURO[…], PHARMACEUTICAL COMPOSITION AND APPLICATION” (priority 2018, published 2023)

How the values were obtained:
[1] = test system: primary cultured hippocampal neurons damaged by NMDA; test: NMDA damage of primary cultured hippocampal neurons, MTT viability; type: cell-based, SD (Sprague-Dawley) rat; details: for hippocampal neuron activity after NMDA damage (MTT): MK801 10 μM
Excerpt: (1) Establishment of NMDA damage model. Primary culture of hippocampal neurons: SD (Sprague-Dawley) female rats pregnant for 18-19 days were anesthetized with a compound anaesthetic agent; fetal rat brains were taken under aseptic conditions and placed in HBSS solution (8.4 g/L of NaCl, 0.224 g/L of KCl, 2.38 g/L of HEPES, 500,000 units of penicillin sodium and 500,000 units of kanamycin sulfate; the pH was adjusted to 7.1-7.2 with 1M NaOH; then the osmotic pressure was adjusted to about 290±10 m Osm with ultrapure water; and after filtration, the solution was stored at 4° C.); the meninges were removed under a stereoscopic dissecting microscope; the bilateral hippocampus was removed and digested in 0.125% pancreatic protease at 37° C. for 10 min; and complete media (90% DMEM medium+10% FBS) (FBS: fetal bovine serum) was used to terminate the digestion; the bilateral hippocampus was washed for 3 times with the complete media to make a single cell suspension; the cell density was adjusted to about 7-8×10^5/ml; and the bilateral hippocampus was inoculated to a 6-well/96-well cell culture plate/60 mm culture dish/slide coated with L-polylysine. After 24 hours, the media were changed to serum-free neurobasal media (GIBCO) which were then placed in a 5% CO2, 37° C. incubator for culture; and half of the solution was changed every three days.
(2) NMDA damage treatment of hippocampal neurons: (1) The original media were sucked out and the cells were washed with magnesium-free extracellular fluid for three times, each for 5 minutes. (2) 10 mM NMDA (N-methyl-D-aspartic acid) and 10 mM Gly (glycine) were prepared with magnesium-free extracellular fluid, and NMDA was prepared to different concentrations with the magnesium-free extracellular fluid, wherein the final concentration of Gly was 10 μM. […] After damage, the cells were washed for three times with DMEM medium, each for 5 minutes. (3) The original culture media were re-added to continue for culturing for 24 hours.
(3) Detection of viability of hippocampal neurons after NMDA damage: (1) The hippocampal neurons were inoculated into a 96-well culture plate at 8×10^5 cells/ml, 0.1 ml per well, and cultured in a 5% CO2 incubator for 7-8 days. (2) After NMDA damage treatment and continuous culture for 24 hours, the culture solution was sucked off. (3) 100 μl of DMEM culture medium containing MTT (3-(4,5-dimethylthiazole-2)-2,5-diphenyltetrazolium bromide, 0.5 mg/ml) was added to each well, and the culture plate was put into 37° C., 5% CO2 incubator for culturing for 4 h. (4) 100 μl of 20% SDS was added to each well (20 g of sodium lauryl sulfate was dissolved in 50 ml of ddH2O+50 ml of N,N dimethylformamide) at 37° C. for 20 h. (5) The solution was shaken on a horizontal shaker for 5 min. (6) The optical density (OD) was measured at 570 nm (reference wavelength of 490 nm) on a microplate reader.
(6) Effect of ABPPk2 on decrease of hippocampal neuron activity caused by NMDA. Effect of different concentrations of ABPPk2 on hippocampal neuron damage caused by NMDA (100 μM, 30 min). The experiment was divided into 9 experimental groups: a normal group, NMDA (100 μM, 30 min) group (as a control group), ABPPk2 (0.01 μg/ml) group, ABPPk2 (0.1 μg/ml) group, ABPPk2 (0.3 μg/ml) group, ABPPk2 (1 μg/ml) group, ABPPk2 (3 μg/ml) group, ABPPk2 (10 μg/ml) group and MK801 (dizocilpine, 10 μM) group (as a positive control group). Three administration ways were adopted for ABPPk2: (1) ABPPk2 was administered 12 hours before and during the NMDA damage. (2) ABPPk2 was administered during NMDA damage. (3) ABPPk2 was administered during 24 hours of culture after NMDA damage.

[2] = test system: primary cultured SD fetal rat cortical neurons after OGD damage; test: OGD damage of cortical neurons, Hoechst 33258 staining of apoptotic bodies; type: cell-based; details: OGD 2 h, 24 h reoxygenation; ABPPk2 8, 40, 200 ng/ml, dose-dependent; BDNF 10 ng/ml
Experimental: The suspension was filtered with a 400-mesh screen, centrifuged at 1000 rpm for 5 min, and blown to form the single cell suspension. DMEM high glucose complete medium (containing 10% fetal bovine serum) was inoculated in a culture dish or culture plate pre-coated with polylysine (PLL) to culture in 5% CO2 incubator with saturated humidity at 37° C. After the cells were cultured for 4 h to adhere to the wall, the cells were cultured with neuron culture medium (neurobasal+2% B27) for 3 d to observe the growth of neurons. The culture medium containing cytarabine (the final concentration of cytarabine was 2.5 μg/ml) was substituted with half quantity to culture for 3d to inhibit the growth of glial cells and miscellaneous cells to obtain purely cultured primary cortical nerve cells. The purity of the cortical neurons was identified by immunocytochemical staining as more than 90%.
After the cortical neurons were cultured to the 7th day, the original culture medium was sucked out, and the cells were rinsed twice with sugar-free DMEM basal medium, for 5 min each time. Each OGD damage group was added with DMEM sugar-free culture medium, placed in a Billups-Rothenberg anaerobic culture chamber, filled with 95% N2/5% CO2 to balance for 15 min, and sealed for 2 h to build an OGD model. […]

## CLETSGSCIPGAQHNCCSGVCVPLVTLFYGVCY (Achyranthes bidentata Blume) [SEQ ID No: 3]
[1]; overall statement, experimental solution of embodiment 6, concentration and administration way not stated
  protective effect on NMDA damage of primary hippocampal neurons: can effectively reduce the decrease of hippocampal neuron activity caused by NMDA damage

## C[C@]12N[C@H](Cc3ccccc31)c1ccccc12 [MK801, dizocilpine, reference compound]
[1]; given 12 h before and during NMDA (100 μM, 0.5 h), ABPPk2 0.1, 0.3 and 1 μg/ml groups
  hippocampal neuron activity after NMDA damage (MTT): can effectively reduce the decrease of hippocampal neuron activity caused by NMDA damage
[1]; given during 24 h culture after NMDA damage (100 μM, 0.5 h), ABPPk2 0.1-10 μg/ml
  hippocampal neuron activity after NMDA damage (MTT): can effectively reduce the decrease of hippocampal neuron activity caused by NMDA damage
[1]; given during NMDA damage (100 μM, 0.5 h), ABPPk2 1 and 10 μg/ml groups
  hippocampal neuron activity after NMDA damage (MTT): can effectively reduce the decrease of hippocampal neuron activity caused by NMDA damage

B1: BDNF: positive control group, final concentration of 10 ng/ml (protein, UniProt P23560 19-247, looked up)
Neurotrophic factor BDNF …: APMKEANIRGQGGLAYPGVRTHGTLESVNGPKAGSRGLTSLADTFEHVIEELLDEDQKVRPNEENNKDADLYTSRVMLSSQVPLEPPLLFLLEEYKNYLDAANMSMRVRRHSDPARRGELSVCDSISEWVTAADKKTAVDMSGGTVTVLEKVPVSKGQLKQYFYETKCNPMGYTKEGCRGIDKRHWNSQCRTTQSYVRALTMDSKKRIGWRFIRIDTSCVCTLTIKRGR
[2]
  apoptotic bodies of cortical neuron nuclei: the apoptotic bodies are reduced
